Experimental data: ChEMBL document CHEMBL1133830, “Potent, low molecular weight thrombin receptor antagonists” (Bioorg Med Chem Lett, 2001); call rule not given here

Columns and labels:
[1] = biological target: T1, Proteinase-activated receptor 1 (Homo sapiens, UniProt P25116); assay: Inhibitory concentration against potent thrombin receptor-1 (PAR-1) on human platelets
T1 sequence (P25116 whole entry): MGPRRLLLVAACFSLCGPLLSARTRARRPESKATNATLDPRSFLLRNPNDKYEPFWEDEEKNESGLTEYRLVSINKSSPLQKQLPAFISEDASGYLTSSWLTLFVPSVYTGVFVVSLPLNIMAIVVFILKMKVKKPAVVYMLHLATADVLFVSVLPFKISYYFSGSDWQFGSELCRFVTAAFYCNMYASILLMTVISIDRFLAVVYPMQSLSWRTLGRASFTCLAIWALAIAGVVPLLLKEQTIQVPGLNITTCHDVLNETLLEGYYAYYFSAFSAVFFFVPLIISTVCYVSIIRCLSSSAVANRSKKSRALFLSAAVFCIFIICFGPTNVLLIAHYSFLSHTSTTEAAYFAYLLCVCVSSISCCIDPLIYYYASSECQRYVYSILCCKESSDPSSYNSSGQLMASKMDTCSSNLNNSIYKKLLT

[2] = biological target: T1, Proteinase-activated receptor 1; assay: Inhibitory concentration against potent thrombin receptor-1 (PAR-1) on human platelets; Inactive
[3] = species: Homo sapiens; assay: Inhibition of human platelet aggregation induced by thrombin; type: functional
[4] = species: Homo sapiens; assay: Inhibition of human platelet aggregation induced by high affinity thrombin receptor agonist peptide( ha-TRAP); type: functional

SMILES	IC50 [1] [nM]	IC50 [2]	further results
CC(C)(C)c1cc(C(=O)Cn2c(N)nc3ccccc32)cc(C(C)(C)C)c1O	1500	–	–
Cn1c(=N)n(CC(=O)c2cc(C(C)(C)C)c(O)c(C(C)(C)C)c2)c2ccccc21	900	–	–
O=C(Cn1c(=O)n(Cc2ccccc2)c2ccccc21)c1ccc(F)cc1	–	Not Active	–
O=C(Cn1c(=O)n(Cc2ccccc2)c2ccccc21)c1ccc(Cl)cc1Cl	–	Not Active	–
CC(C)(C)c1cc(C(=O)Cn2c(=N)n(Cc3ccc(Cl)c(Cl)c3)c3ccccc32)cc(C(C)(C)C)c1O	1320	–	–
Cc1ccc(C(=O)Cn2c(=O)n(Cc3ccccc3)c3ccccc32)cc1	–	Not Active	–
CC(C)(C)c1ccc(Cn2c(=N)n(CC(=O)c3cc(C(C)(C)C)c(O)c(C(C)(C)C)c3)c3ccccc32)cc1	734	–	–
O=C(Cn1c(=O)n(Cc2ccccc2)c2ccccc21)c1ccc(O)c(O)c1	–	Not Active	–
CC(C)(C)c1cc(C(=O)Cn2c(=N)n(CCN3CCOCC3)c3ccccc32)cc(C(C)(C)C)c1O	98	–	IC50 [3]: > 10000 nM; IC50 [4]: 2000 nM
CC(C)(C)c1cc(C(=O)Cn2c(=N)n(CCN3CCCCC3)c3ccccc32)cc(C(C)(C)C)c1O	2870	–	–
O=C(Cn1c(=O)n(Cc2ccccc2)c2ccccc21)c1ccc(Br)cc1	–	Not Active	–
COc1ccc(OC)c(C(=O)Cn2c(=O)n(Cc3ccccc3)c3ccccc32)c1	–	Not Active	–
N#Cc1ccc(C(=O)Cn2c(=O)n(Cc3ccccc3)c3ccccc32)cc1	–	Not Active	–
Cc1ccc(Cn2c(=N)n(CC(=O)c3cc(C(C)(C)C)c(O)c(C(C)(C)C)c3)c3ccccc32)cc1	33	–	IC50 [3]: 1500 nM; IC50 [4]: 575 nM
Cc1cc(C(=O)Cn2c(=O)n(Cc3ccccc3)c3ccccc32)ccc1Cl	–	Not Active	–
CCCCCCCn1c(=N)n(CC(=O)c2cc(C(C)(C)C)c(O)c(C(C)(C)C)c2)c2ccccc21	964	–	–
Cc1ccc(C(=O)Cn2c(=O)n(Cc3ccccc3)c3ccccc32)c(C)c1	–	Not Active	–
CCC(=O)c1cc(C(C)(C)C)c(O)c(C(C)(C)C)c1	–	Not Active	–
Cn1c(=O)n(CC(=O)c2cc(C(C)(C)C)c(O)c(C(C)(C)C)c2)c2ccccc21	–	Not Active	–
CC(C)(C)c1cc(C(=O)Cn2c(=N)n(Cc3ccccc3)c3ccccc32)cc(C(C)(C)C)c1O	65	–	IC50 [3]: 600 nM; IC50 [4]: 265 nM
CCCCn1c(=N)n(CC(=O)c2cc(C(C)(C)C)c(O)c(C(C)(C)C)c2)c2ccccc21	359	–	IC50 [3]: 10000 nM; IC50 [4]: 825 nM
